Experiment [1] relates to antibodies raised to Immunogens I & II. Nature of the experiment: Competitive ELISA (Example 19), sensitivity and cross-reactivity of selected molecules, one result for both antibodies. The class given is binding, sheep. Particulars: for % CR / IC50: first Table 3, Standard Conc 750.00 ng/ml. How it is done: (§1) Aqueous solutions of the immunogens prepared in examples 5 and 13 were formulated with Freund's Complete Adjuvant (FCA) to form emulsions consisting of 2mg/ml Immunogen I and 2mg/ml of Immunogen II in 50%(v/v) FCA. Three sheep were immunised with each emulsion (1° immunisations), 0.25ml being intramuscularly injected at four sites in the rump of each animal. Subsequent immunisations (boosts 2-8) contained 1mg/ml Immunogen I and 1mg/ml Immunogen II. All boosts were emulsified in 50%(v/v) Freund's Incomplete Adjuvant (FIA) and administered to the appropriate sheep in the same manner as the 1° immunisations, at monthly intervals. Blood sampling took place 7-14 days after each boost. Each sample was processed to produce antiserum, which was further purified by caprylic acid and ammonium sulphate precipitation to yield an immunoglobulin (Ig) fraction. The Ig fraction was evaluated by competitive ELISA microtiter plate assay, as described in example 19 below.
(§2) Example 19: Development of competitive ELISA for JWH synthetic cannabinoids and metabolites. • (a) The wells of an enhanced binding 96 well polystyrene microtiter plate were coated with the Ig fraction of the antiserum raised to Immunogen I (Hapten A-BTG - example 5) and diluted in 10mM Tris, pH8.5 (125µl/well). The appropriate antibody coating concentration was determined using standard ELISA checkerboard techniques. The plate was incubated for 2 hours at 37°C, washed 4 times over a 10-minute period with Tris buffered saline containing Tween 20 (TBST) and tapped dry. Standard solutions of JWH synthetic cannabinoids, metabolites and selected molecules were prepared in TBST and 50µl of each was added to the appropriate wells. 75µl of conjugate (Hapten A-HRP) diluted in Tris buffer containing EDTA, D-mannitol, sucrose, thimerosal and BSA, was added to each of the wells. The appropriate dilution of conjugate was also determined using standard ELISA checkerboard techniques. The plate was incubated at 25°C for 1 hour. The excess unbound conjugate was removed by washing 6 times over a 10-minute period with TBST and tapped dry. 125µl of tetramethylbenzedine (TMB) substrate solution was added to each well of the plate that was then incubated for 15-20 minutes in the dark at room temperature. The reaction was terminated by addition of 125µl of 0.2M sulphuric acid to each well. The absorbance was then measured at 450nm using a microtiter plate reader. Employing each series of standards, calibration curves were generated and these were used to determine the specificity of the immunoassay for the JWH synthetic cannabinoids, metabolites and selected molecules. The results of this study are presented in Tables 1 to 3, cross-reactivity being calculated according to the following formula: %CR = […] /IC50,CR X 100 [formula] Where %CR is the percentage cross-reactivity, IC50, YWH-018 is the concentration of JWH-018 that causes 50% displacement of signal and IC50, CR is the concentration of JWH synthetic cannabinoid/metabolite/selected molecule that causes 50% displacement of signal.
Table 2: Data generated from a competitive microtiter plate assay for JWH synthetic cannabinoids and metabolites, employing antiserum raised to Immunogen I (Hapten A-BTG) and conjugate (Hapten A-HRP) as detection reagent. • (c) The resulting competitive ELISA for synthetic cannabinoids and metabolites was further employed to analyse urine and serum samples from 20 patients (Table 3). • (d) The resulting competitive ELISA for synthetic cannabinoids and metabolites was also employed to test for the 5-fluoropentyl derivative of JWH-018, (1-(5-fluoropentyl)indol-3yl (1-naphthyl) methanone (Table 4).

For a further experiment, the system named is Antibody to Immunogen IV. The class given is binding, sheep. Particulars: Cross-reactants at 100 ng/ml; Antibody to Immunogen IV.
Experiment [2] relates to Antibody to Immunogen VIII. In kind it is binding, sheep. Particulars: Cross-reactants at 100 ng/ml; Antibody to Immunogen VIII.
Experiment [3] concerns Antibody to Immunogen VII. The class given is binding, sheep. Particulars: Cross-reactants at 100 ng/ml; Antibody to Immunogen VII.
In another experiment the test system is Antibody to Immunogen I. The class given is binding, sheep. Particulars: Cross-reactants at 100 ng/ml; Antibody to Immunogen I. The procedure, abridged: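 Sheep anti-Immunogen I IgG coated on plates, then JWH-018 standards (0–40 ng/ml) competed with hapten-HRP conjugate for 1 h at 25°C. TMB read-out at 450 nm, 4-parameter fit. IC50 is the standard concentration giving 50% B/B0; cross-reactivity of related cannabinoids taken from the calibration curves.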

The test system of experiment [4] is antiserum raised to Immunogen II (Hapten B-BTG). Kind of experiment: Competitive ELISA microtiter plate assay (Example 19), antiserum raised to Immunogen II, Hapten A-HRP conjugate as detection reagent. In kind it is binding, sheep. Particulars: first Table 4, Immunogen II. As to the method: as §1, §2
Table 1: Data generated from a competitive microtiter plate assay for JWH synthetic cannabinoids and metabolites, employing antiserum raised to Immunogen II (Hapten B-BTG) and conjugate (Hapten A-HRP) as detection reagent. (b) In a similar manner to that described in Example 19(a), the wells of a 96 well microtiter plate were coated with the Ig fraction of the antiserum raised to Immunogen II ([…]). Conjugate (Hapten A-HRP) was employed as a detection reagent.
(In general: An ELISA detects its analyte on a solid surface through an enzyme-linked reagent.)

Experiment [5] relates to antiserum raised to Immunogen I (Hapten A-BTG). Nature of the experiment: Competitive ELISA microtiter plate assay (Example 19), antiserum raised to Immunogen I, Hapten A-HRP conjugate as detection reagent. In kind it is binding, sheep. Particulars: first Table 4, Immunogen I. As to the method: as §1, §2
Table 1: Data generated from a competitive microtiter plate assay for JWH synthetic cannabinoids and metabolites, employing antiserum raised to Immunogen II (Hapten B-BTG) and conjugate (Hapten A-HRP) as detection reagent. (b) In a similar manner to that described in Example 19(a), the wells of a 96 well microtiter plate were coated with the Ig fraction of the antiserum raised to Immunogen II ([…]). Conjugate (Hapten A-HRP) was employed as a detection reagent. […]

The target in a further experiment is CB1 receptor (Homo sapiens, UniProt P21554). Particulars: result in words; detailed in US6900236; cited from earlier work.
Sequence of CB1 receptor (P21554 whole entry): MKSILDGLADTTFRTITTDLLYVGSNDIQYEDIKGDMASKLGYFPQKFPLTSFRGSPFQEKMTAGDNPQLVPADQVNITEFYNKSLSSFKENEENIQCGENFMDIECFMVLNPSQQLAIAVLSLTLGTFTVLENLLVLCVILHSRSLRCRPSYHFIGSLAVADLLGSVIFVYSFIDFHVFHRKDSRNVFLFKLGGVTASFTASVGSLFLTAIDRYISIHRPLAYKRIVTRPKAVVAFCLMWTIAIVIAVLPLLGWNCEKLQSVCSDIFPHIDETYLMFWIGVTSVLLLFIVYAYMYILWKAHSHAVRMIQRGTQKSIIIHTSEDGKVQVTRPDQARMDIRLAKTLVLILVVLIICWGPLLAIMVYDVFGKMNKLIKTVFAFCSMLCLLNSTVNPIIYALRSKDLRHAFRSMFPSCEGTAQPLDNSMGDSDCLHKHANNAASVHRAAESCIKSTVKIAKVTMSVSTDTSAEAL

What is called IC50 is the midpoint of a concentration-inhibition curve. `CCCCCc1cc(O)c2c(c1)OC(C)(C)[C@@H]1CCC(C)=C[C@@H]21` [Delta 9 THC]: the “% CR” value in experiment [1] is given as under 0.28%. For the same compound, in experiment [1], the 50% inhibitory concentration (IC50) was over 750.00 ng/mL. In addition, the “%B/B0” value with Antibody to Immunogen IV worked out at 93.62%; in experiment [2] it was 96.10%; in experiment [3], 96.76%.

For `CCCCCCC(C)(C)c1ccc([C@H]2CCC[C@@H](O)C2)c(O)c1` (racemic) [CP-49,497-C7 ((+-) CP 47,497), CP 47,497], the “% CR” value in experiment [1] is reported as under 0.28%. The IC50 in experiment [1] was over 750.00 ng/mL. Besides, the “%B/B0” value in the experiment with Antibody to Immunogen I was found to be 101.20%; in the experiment on Antibody to Immunogen IV it was 96.84%; in experiment [2], 86.95%; in experiment [3], 94.23%.

As for `O=C(c1cccc2ccccc12)c1cn(CCCCCF)c2ccccc12` [5-Fluoropentyl derivative, 1-(5-Fluoropentyl)indol-3-yl (1-naphthyl) methanone], the 50% inhibitory concentration (IC50) is 0.22 ng/mL in experiment [4] and 0.02 ng/mL in experiment [5]. Besides, the “% Cross-reactivity” value was found to be 908.00% in experiment [4] (JWH-018 = 100) and 11500.00% in experiment [5] (JWH-018 = 100). Further, the “binding / cross-reaction with antibodies raised from Immunogens I and II” value in experiment [1] (result in words) was “binds”. For the same compound, at CB1 receptor, the “binding to the CB1 receptor” value is reported as “known to bind”.

As to `O=C(O)Cc1c[nH]c2ccc(O)cc12` [5-hydroxyindole-3-acetic acid (5-HIAA), 5-hydroxyindole-3-acetic acid], the “% CR” value in experiment [1] was under 0.28%. For the same compound, the IC50 in experiment [1] was over 750.00 ng/mL. For the same compound, the “%B/B0” value worked out at 96.61% with Antibody to Immunogen IV, 108.24% in experiment [2] and 99.46% in experiment [3].

The values are drawn from patent EP2698385A1, “Detection of synthetic cannabinoids” (priority 2012, dated 2014).
